Experimental data taken from patent publication US20110262407A1, “TREATMENT WITH ALPHA7 SELECTIVE LIGANDS” (Targacept, Inc., priority 2008, published 2011).
pKi: −log10 of the molar value. Where two headings read alike, the source gives them in different places.

Experiments:
microglia = details: mice
Description: The proliferation of microglial cells is an early event in the activation process in animal models of neuroinflammation. Microglial activation is thought to contribute to the pathology of many CNS neuro-inflammatory and neurodegenerative disorders.

GP8.3 cells = test: ionizing radiation damage to rat brain vasculature endothelial cells; assay type: cell-based
Experimental: Cells were cultured in α-MEM/Ham's F10, 10% FBS, 50 IU/mL penicillin, 50 μg/mL streptomycin, […] L-glutamine, and 250 μg/mL Geneticin and maintained in a humidified atmosphere containing 5% CO2 at 37° C. Intracellular reactive oxygen species (ROS) generation was measured in GP8.3 cells using 2′7′ dichlorodihydrofluorescein diacetate (DCFH-DA). Cells were incubated with 20 μM DCFH-DA in phosphate buffered saline (PBS) for 30 min prior to irradiation. The fluorescence intensity was measured at excitation wavelength 485 nm and emission wavelength 530 nm using a Bio-Tek FL500 microplate fluorescence reader. Western blot analysis: GP8.3 cells were collected following treatment and protein was separated by polyacrylamide gel electrophoresis (PAGE) on a 12% gel. Primary goat anti-ICAM-1 and mouse anti-β-actin were used. The secondary antibody was horse radish peroxidase (HRP)-conjugated secondary antibodies. Northern blot analysis: Total RNA was isolated using Tri-ZOL reagent. cDNA probes were labeled with α32P-dCTP by the random primer extension method. The cDNA of rat ICAM-1 was synthesized. Cell viability was determined using a modified 3-(4,5-Dimethylthiazol-2-yl)-2,5-Diphenyltetrazolium Bromide (MTT) assay. Briefly, 5,000 cells/well were plated in 24-well plates and incubated overnight. […] At the end of the follow-up period, cells were incubated with MTT in PBS for 4 h. Cell lysis detergent (20% SDS and 50% dimethylformamide, pH 4.7, in PBS) was then added and the plates incubated overnight at 37° C. A 100 μl aliquot of the soluble fraction was then transferred to 96-well microplates, and the absorbance at 570 nm measured using an Enzyme-Linked ImmunoSorbent Assay (ELISA) plate reader.

[1] = test system: hippocampal progenitor cells; details: for magnitude of increase in proliferation of hippocampal progenitor cells: oral gavage, vs vehicle; for proliferation of progenitor cells in the hippocampus: 129SvEv mice
Description: Since new neurons develop from the progenitor cells in the hippocampus, measuring the proliferation of this cell population may be used as an indicator of the full neurogenesis process. Hippocampal neurogenesis can be evaluated by measuring the incorporation of deuterium from heavy water into the DNA of progenitor cells and the rate of label incorporation reflects the rate of cellular proliferation. Fluoxetine, a known neurogenic antidepressant, was used as the positive control and as a comparator to the nicotinic ligands.
Mice were labeled for the last 10-11 days of the drug treatment period. Tissue processing and analysis: At the end of treatment and label, mice were sacrificed, the hippocampus was dissected from the brain and digested with papain and progenitor cells were isolated by Percoll fractionation. DNA was purified from the isolated progenitor cells using a DNEasy tissue kit (Qiagen, Valencia, Calif.), then processed and analyzed by GC/MS. DNA was enzymatically hydrolyzed to free deoxyribonucleosides, and the deoxyribose moiety of purine deoxyribonucleosides was converted to the pentafluorobenzyl triacetate derivative. […] Incorporation of ^2H into purine deoxyribose was quantified as the molar excess fraction M1 (EM1), i.e. the increase over natural abundance (background), determined from the fractional M1 value in unlabeled DNA standards from calf thymus.
Concurrent analysis of DNA from bone marrow cells, which are fully turned over in 1 week provides an internal reference factor in each animal to correct for variations in body water ^2H enrichment. The fraction of newly divided progenitor cells was calculated as the ratio of EM1 in purine deoxyribose from progenitor cell DNA to the corresponding EM1 from enrichment in bone marrow DNA.

alpha7 nAChR = target: T1, alpha7 nAChR (Rattus norvegicus, UniProt Q05941); test: displacement studies using 3H-MLA in rat hippocampal tissues; assay type: binding
T1 construct: displacement studies using ^3H-MLA in rat hippocampal tissues; from tissue; host or cells: rat hippocampus
T1 sequence (Q05941 23-502): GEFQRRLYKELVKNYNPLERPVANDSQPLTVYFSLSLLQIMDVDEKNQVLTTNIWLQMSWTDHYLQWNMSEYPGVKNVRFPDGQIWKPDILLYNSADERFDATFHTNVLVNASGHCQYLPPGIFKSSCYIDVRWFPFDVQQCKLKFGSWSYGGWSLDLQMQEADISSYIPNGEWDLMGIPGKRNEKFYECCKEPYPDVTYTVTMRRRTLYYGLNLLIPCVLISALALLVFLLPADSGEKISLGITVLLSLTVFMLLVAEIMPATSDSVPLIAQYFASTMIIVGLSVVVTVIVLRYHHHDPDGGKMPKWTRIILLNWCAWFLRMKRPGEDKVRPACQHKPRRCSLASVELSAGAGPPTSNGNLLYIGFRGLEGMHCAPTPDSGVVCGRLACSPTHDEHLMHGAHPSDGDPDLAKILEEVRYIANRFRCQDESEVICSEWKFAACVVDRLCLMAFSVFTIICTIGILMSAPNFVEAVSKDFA

[2] = test system: other nicotinic receptors, including alpha4beta2; test: binding affinity for other nicotinic receptors ([3H]-nicotine binding)
alpha4beta2 = alpha4beta2 (Homo sapiens, UniProt P17787+P43681); test: functional agonism at alpha4beta2
Chain of alpha4beta2 (P43681 29-627 limits assumed): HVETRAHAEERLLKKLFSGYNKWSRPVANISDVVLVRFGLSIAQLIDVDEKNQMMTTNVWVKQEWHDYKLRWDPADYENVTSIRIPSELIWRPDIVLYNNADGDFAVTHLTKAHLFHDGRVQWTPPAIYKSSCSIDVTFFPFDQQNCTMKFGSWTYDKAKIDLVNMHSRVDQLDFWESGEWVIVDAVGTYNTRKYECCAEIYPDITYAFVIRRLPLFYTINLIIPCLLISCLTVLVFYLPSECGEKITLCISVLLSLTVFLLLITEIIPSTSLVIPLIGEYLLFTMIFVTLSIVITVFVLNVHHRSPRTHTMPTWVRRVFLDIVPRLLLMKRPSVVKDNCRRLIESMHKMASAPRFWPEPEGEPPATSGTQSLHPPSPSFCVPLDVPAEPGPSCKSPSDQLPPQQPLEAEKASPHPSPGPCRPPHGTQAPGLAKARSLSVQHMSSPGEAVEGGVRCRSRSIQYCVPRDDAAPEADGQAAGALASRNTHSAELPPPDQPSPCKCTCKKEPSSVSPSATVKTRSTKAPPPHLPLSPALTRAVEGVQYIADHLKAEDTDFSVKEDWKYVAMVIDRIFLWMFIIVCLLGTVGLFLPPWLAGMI
Chain of alpha4beta2 (P17787 26-502): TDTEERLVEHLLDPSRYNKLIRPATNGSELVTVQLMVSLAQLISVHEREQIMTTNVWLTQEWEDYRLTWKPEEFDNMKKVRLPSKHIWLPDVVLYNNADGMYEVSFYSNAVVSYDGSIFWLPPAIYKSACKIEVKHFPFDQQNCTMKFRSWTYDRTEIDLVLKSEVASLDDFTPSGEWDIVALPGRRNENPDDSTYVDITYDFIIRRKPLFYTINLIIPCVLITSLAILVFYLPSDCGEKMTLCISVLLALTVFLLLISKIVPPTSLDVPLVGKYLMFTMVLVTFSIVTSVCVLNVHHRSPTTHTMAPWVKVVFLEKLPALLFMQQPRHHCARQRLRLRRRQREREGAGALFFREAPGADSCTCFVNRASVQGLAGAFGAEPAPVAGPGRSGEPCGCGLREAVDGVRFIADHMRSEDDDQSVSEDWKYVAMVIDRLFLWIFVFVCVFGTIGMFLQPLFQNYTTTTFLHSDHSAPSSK
Description: […]. […] […]

[3] = target: T2, human alpha7 nicotinic receptors (Homo sapiens, UniProt P36544); test: electrophysiology functional assay in Xenopus laevis oocytes; assay type: cell-based
T2 construct: expressed in transfected cells; host or cells: Xenopus laevis oocytes (transient expression)
T2 sequence (P36544 23-502): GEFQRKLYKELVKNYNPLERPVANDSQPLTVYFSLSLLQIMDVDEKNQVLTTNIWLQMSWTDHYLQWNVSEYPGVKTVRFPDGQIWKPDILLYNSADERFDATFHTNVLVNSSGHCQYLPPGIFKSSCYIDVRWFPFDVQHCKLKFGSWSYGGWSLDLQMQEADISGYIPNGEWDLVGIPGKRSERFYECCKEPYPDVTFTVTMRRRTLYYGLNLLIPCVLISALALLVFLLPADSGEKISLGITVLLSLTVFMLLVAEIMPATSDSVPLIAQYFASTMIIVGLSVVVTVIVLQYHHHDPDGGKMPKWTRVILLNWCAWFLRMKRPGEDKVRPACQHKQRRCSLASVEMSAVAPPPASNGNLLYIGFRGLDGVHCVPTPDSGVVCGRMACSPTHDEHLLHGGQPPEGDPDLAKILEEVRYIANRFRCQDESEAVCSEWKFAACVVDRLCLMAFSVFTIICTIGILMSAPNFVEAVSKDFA

PC12 cells = test: neuroprotection against Abeta(1-42) in PC12 cells; assay type: cell-based, rat
Description: It has been shown that nicotine-induced complex formation between the alpha7 nicotinic acetylcholine receptor (nAChR) and the tyrosine-phosphorylated enzyme Janus kinase 2 (JAK2) results in subsequent activation of phosphatidylinositol-3-kinase (PI-3-K) and Akt. Nicotine interaction with the alpha7 nAChR inhibits Aβ (1-42) interaction with the same receptor, and Aβ (1-42)-induced apoptosis is prevented through nicotine-induced activation of JAK2. These effects can be shown by measuring markers of cytotoxicity, including the cleavage of the nuclear protein poly(ADP-ribose) polymerase (PARP), the induction of caspase 3, or cell viability.
PC12, rat pheochromocytoma cells, were maintained in proliferative growth phase in Dulbecco's modified Eagle's medium supplemented with 10% horse serum, 5% fetal calf serum, and antibiotics (penicillin/streptomycin). Apoptosis was determined by assessing the cleavage of the DNA-repairing enzyme PARP using a Western blot assay. […] Caspase 3 enzyme activity was determined with a fluorogenic substrate for caspase-3 in crude PC12 cell extracts. […] The substrate emits a blue fluorescence when excited at a wavelength of 360 nm. When cleaved from the peptide by the caspase 3 enzyme activity in the cell lysate, free 7-amino-4-methyl Coumarin is released and can be detected by its yellow/green emission at 460 nm. […]

## Cc1ccc(C(=O)N[C@@H]2C3CCN(CC3)[C@H]2Cc2cccnc2)s1 [Compound A, 5-methyl-N-[(2S,3R)-2-(pyridin-3-ylmethyl)-1-azabicyclo[2.2.2]oct-3-yl]thiophene-2-carboxamide]
microglia; 1 mg/kg p.o.
  LPS-induced neuroinflammation (microglial proliferation): decreased LPS-induced neuroinflammation
GP8.3 cells; pre-incubation (10 μM per FIG. 7)
  radiation-induced up-regulation of ICAM1 mRNA and protein: ameliorated
GP8.3 cells; pre-incubation (10 μM per FIG. 8)
  radiation-induced up-regulation of ROS: abolished
GP8.3 cells; pre-incubation with 10 μM
  radiation-induced up-regulation of IL-6 mRNA and protein: abolished
[1]; 0.1 mg/kg, 3 weeks
  magnitude of increase in proliferation of hippocampal progenitor cells: 36%
[1]; 0.3 mg/kg, 3 weeks
  magnitude of increase in proliferation of hippocampal progenitor cells: 24%
[1]; 1 mg/kg, 3 weeks
  magnitude of increase in proliferation of hippocampal progenitor cells: 30%
[1]; repeat administration 0.1-1 mg/kg/day p.o.
  proliferation of progenitor cells in the hippocampus: increase the proliferation of progenitor cells

## c1cncc(C2CCC3CCN2CC3)c1 (centres unmarked) [Compound B, 2-(3-pyridinyl)-1-azabicyclo[3.2.2]nonane]
alpha7 nAChR
  pKi: 8.70 to 9.00
[2]
  binding to alpha4beta2: binds to alpha4beta2
alpha4beta2
  functional agonism at alpha4beta2: not functionally agonistic
[3]
  Emax: > 50%
PC12 cells; FIG. 10
  cell survival in PC-12 cells exposed to lethal amounts of Abeta(1-42): neuroprotective
PC12 cells; PC12 cells
  neuroprotection against Aβ (1-42) via JAK2/PI-3K cascade (PARP cleavage): exerts neuroprotective effects

## CN1CCCC1c1cccnc1 (centres unmarked) [Compound C, nicotine, reference compound]
alpha7 nAChR; displacement of [3H]-MLA
  affinity for alpha7 nAChR: high affinity
[2]
  binding to alpha4beta2: high affinity
microglia; 0.1 mg/kg p.o.
  LPS-induced neuroinflammation (microglial proliferation): decreased LPS-induced neuroinflammation
[1]; repeat administration 1 mg/kg/day p.o.
  proliferation of progenitor cells in the hippocampus: increase the proliferation of progenitor cells

## CNCCC(Oc1ccc(C(F)(F)F)cc1)c1ccccc1 (centres unmarked) [fluoxetine, Fluoxetine, reference compound]
[1]; 10 mg/kg po, 3 weeks, positive control
  increase in proliferation of hippocampal progenitor cells: 35%

## CNC1(C)C2CCC(C2)C1(C)C (centres unmarked) [mecamylamine, reference compound]
GP8.3 cells; antagonist with Compound A
  effect on the Compound A-induced changes (IL-6, ICAM-1, ROS): reversed
